# Measurements from patent US7893108B2, “Antiviral methods and compositions” (priority 2004, dated 2011).
# Where two headings read alike, the source gives them in different places.
# Columns and labels:
# [1] = molecular target: UL54 (Human cytomegalovirus, UniProt P08546); assay: basal DNA polymerase activity of UL54 alone (filter-based assay); format: biochemical; details: 0, 4, 20, 40, 100 μM; 20 min at 37° C.; read-out: IC50 for inhibition of the activity of UL54 alone
# Procedure: The basal DNA polymerase activity of UL54 in the absence or in the presence of various amounts of each compound was measured by a filter-based assay as previously described (Loregian et al., 2003), but using 5 μl of in vitro-transcribed and -translated UL54 as in Loregian et al. (Loregian et al., 2004a). The reaction was initiated by addition of a reaction mixture containing 75 mM Tris-HCl (pH 8.0), 6.5 mM MgCl2, bovine serum albumin (400 μg/ml), 1.67 mM β-mercaptoethanol, 150 mM KCl, 1.6 μM [^3H]dTTP, poly(dA)-oligo(dT) (10 μg/ml; Amersham Pharmacia Biotech), and 0, 4, 20, 40, 100 μM of each compound. Samples were taken after 20 min of incubation at 37° C. and spotted onto DE81 filters (Whatman), previously soaked in 0.1 M EDTA and air dried. The filters were washed three times in 5% Na2HPO4, two times in water, and two times in methanol and then were dried. Radioactivity was measured with a scintillation counter.
# [2] = tested on: HCMV AD169; assay: virus yield reduction assay; format: cell-based, human cytomegalovirus
# Procedure: Next, we tested the effects of selected compounds and of GCV as a control in viral yield assays, which measure the titer of virus progeny produced following infection at relatively high multiplicity. In these assays, the viral titer was measured at two different times points post-infection (p.i.): at 96 hrs, when the release of virus progeny is increasing, and at 120 hrs, when the titer of virus progeny after a single cycle of replication reaches peak levels (Stinski, 1983).
# (§1) For yield reduction assays, HFF cells were plated at 2×10^4 cells per well in 96-well cluster dishes, incubated overnight, and infected with HCMV AD169 at a multiplicity of infection (MOI) of 1. After virus adsorption for 2 hr at 37° C., cells were washed and incubated with 200 μl of fresh media containing test compounds at increasing drug concentration. Plates were incubated for 3 or 5 days at 37° C. and subjected to one cycle of freezing and thawing, and titers were determined by transferring 100-μl aliquots from each of the wells to a fresh 96-well monolayer culture of HFF cells followed by 1:5 serial dilution across the plate. Cultures were incubated for 7 days, cells were stained, and the numbers of plaques were determined as described above.
# as §1, with “The effect of the compounds was assessed in an assay of virus yield. In this assay, cells are infected at a relatively high multiplicity of infection (about one per cell) and then drug is added. The virus produced at the different times post infection is measured. 120 hrs. is about the peak titer. This assay was conducted as follows.” for “For yield reduction assays,”, “20,000” for “2×10^4”, “an MOI” for “a multiplicity of infection (MOI)”, “0.1, 0.3, 1, 3, 10, 30 μM” for “increasing”
# [3] = molecular target: T1, UL54 plus GST-UL44ΔC290 (Human cytomegalovirus, UniProt P16790); assay: long-chain DNA synthesis by UL54 in the presence of UL44; format: biochemical, HCMV; details: for inhibition of long-chain DNA synthesis by UL54 and UL44: dose-response
# T1 construct: GST-UL44ΔC290 fusion protein, which contains the N-terminal 290 residues of HCMV UL44; made in house; host or cells: UL54: in vitro transcription/translation; GST-UL44ΔC290: E. coli BL21 (DE3)pLysS
# T1 sequence (P16790 1-290, stated change not applied): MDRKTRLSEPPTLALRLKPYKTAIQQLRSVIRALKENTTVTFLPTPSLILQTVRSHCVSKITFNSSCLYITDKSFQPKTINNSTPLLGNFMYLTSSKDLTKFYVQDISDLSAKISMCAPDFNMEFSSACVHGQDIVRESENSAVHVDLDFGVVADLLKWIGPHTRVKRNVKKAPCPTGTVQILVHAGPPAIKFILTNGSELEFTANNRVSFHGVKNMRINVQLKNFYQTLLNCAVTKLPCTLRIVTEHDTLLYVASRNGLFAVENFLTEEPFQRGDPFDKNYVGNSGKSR
# Procedure: To analyze the ability of the compounds to interfere with functional UL54-UL44 interactions, we tested their ability to inhibit long-chain DNA synthesis by UL54 in the presence of UL44 employing a poly(dA)-oligo(dT)12-18 template-primer.
# DNA polymerase assays. The effects of compounds were tested in an assay that measures long-chain DNA synthesis as described in Loregian et al. (Loregian et al., 2004a), with 5 μl of in vitro-transcribed and -translated UL54 plus 800 fmol of GST-UL44ΔC290 in the absence or in the presence of various amounts of each compound.
# The effect of the compounds was also tested in an assay that measures long chain (Lc) DNA synthesis as described in Loregian et al., J. Virol. […]
# [4] = XTT cytotoxicity assay; format: cell-based, human; details: human
# Procedure: (§2) Cytotoxicity assays. HFF cells were seeded at 2×10^4, 4×10^3, or 10^3 cells per well into 96-well plates and, after a 3-hr incubation to allow cell attachment, were treated for 24, 72, or 120 hr, respectively, with various concentrations of each compound in duplicate. Cell viability was then determined with an XTT assay (Roche Molecular Biochemicals) according to the manufacturer's protocol by using a Victor plate reader (Wallac).
# (§3) The cytotoxicity of the compounds was measured in an XTT assay. XTT is a compound that is converted to a product that can be measured […], but only by viable cells. This assay is as follows. HFF (human foreskin fibroblasts) cells were seeded at different concentrations into 96-well plates and treated with various concentrations (from 0 to 200 μM) of each compound in duplicate for 24, 72 or 120 hr. Cell viability was then determined with an XTT assay (Roche Molecular Biochemicals) according to the manufacturer's protocol by using a Victor plate reader (Wallac).
# [5] = tested on: HFF cells; assay: XTT cytotoxicity assay; format: cell-based, human
# Procedure: as §2, §3
# [6] = tested on: HCMV strain AD169; assay: plaque reduction assay; format: cell-based, human cytomegalovirus; details: HFF cells; 0-30 μM
# Procedure: Antiviral assays. Plaque reduction assays were performed essentially as follows: HFF (human foreskin fibroblast) cells were seeded at 2×10^5 cells per well in 24-well cluster dishes. The next day, cells were infected with HCMV (strain AD169) at 80 PFU per well in DMEM plus 5% fetal bovine serum (FBS) at 37° C. Two hours post-infection, the inocula were removed, cells were washed, and media containing various drug dilutions, 5% FBS, and 0.6% methylcellulose were added. All drug dilutions were tested at least in duplicate. After incubation at 37° C. for 10-11 days, cell monolayers were stained with crystal violet and plaques were counted under light microscopy.
# The effect of the compounds was assessed in a plaque reduction assay that measures the number of plaques formed in the presence of varying concentrations of a drug, as follows. HFF were seeded at 2×10^5 cells per well in 24-well cluster dishes. The next day, they were infected with HCMV AD169 at 80 PFU per well in DMEM plus 5% FBS at 37° C. Two hr post-infection, the inocula were then removed, cells were washed, and media containing selected drug dilutions (0, 0.1, 0.3, 1, 3, 10, 30 μM), and 5% FBS and 0.6% methylcellulose were added. All drug dilutions were tested at least in duplicate. After incubation at 37° C. for 10-11 days, cell monolayers were stained with crystal violet and plaques were enumerated under light microscopy.
# [7] = molecular target: T2, full-length UL54 / UL44 interaction (Human cytomegalovirus, UniProt P16790); assay: UL54-UL44 interaction ELISA; format: binding, HCMV; details: concentrations up to 200 μM
# T2 construct: made in house; host or cells: baculovirus expression; proteins provided by H. S. Marsden (Institute of Virology, Glasgow)
# T2 sequence (P16790 whole entry): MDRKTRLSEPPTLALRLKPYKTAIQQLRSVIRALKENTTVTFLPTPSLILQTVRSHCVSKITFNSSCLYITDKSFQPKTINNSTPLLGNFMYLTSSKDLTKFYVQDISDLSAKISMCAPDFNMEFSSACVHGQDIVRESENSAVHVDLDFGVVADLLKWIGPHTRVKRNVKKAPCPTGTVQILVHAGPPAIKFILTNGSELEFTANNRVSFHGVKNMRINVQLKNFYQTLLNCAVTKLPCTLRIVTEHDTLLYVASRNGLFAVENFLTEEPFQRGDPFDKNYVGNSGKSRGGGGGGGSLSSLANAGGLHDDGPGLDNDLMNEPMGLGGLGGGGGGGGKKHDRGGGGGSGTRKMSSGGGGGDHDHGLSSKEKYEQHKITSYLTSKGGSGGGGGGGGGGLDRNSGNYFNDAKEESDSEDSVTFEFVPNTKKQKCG
# Procedure: In this assay, binding between purified baculovirus-expressed UL54 and UL44, which was tagged with an EEF epitope, was detected using an antibody that recognizes the epitope tag (Loregian et al., 2003).
# UL54-UL44 interaction ELISA. This assay was conducted as described in (Loregian et al., 2003), testing various concentrations of each compound. After final washes, the chromogenic substrate 2,2′-azino-bis(3-ethylbenzothiazoline-6-sulphonic acid (ABTS, Pierce) in citrate phosphate buffer (pH 4.0) containing 0.01% hydrogen peroxide was added and absorbance was read at 405 nm on a Victor plate reader (Wallac).
# Another assay that was used to test the effect of the compounds on the interaction of UL44 and UL54 is an ELISA interaction assay, which measures the interaction of the two full length proteins with each other. This assay was conducted as described in Loregian et al., J. Virol. 2003, 77:8336-8344, testing different concentrations (0, 3.12, 6.25, 12.5, 25, 50, 100, 200 μM) of each compound.
# [8] = literature; cited from earlier work
# UL54, sequence (P08546 whole entry): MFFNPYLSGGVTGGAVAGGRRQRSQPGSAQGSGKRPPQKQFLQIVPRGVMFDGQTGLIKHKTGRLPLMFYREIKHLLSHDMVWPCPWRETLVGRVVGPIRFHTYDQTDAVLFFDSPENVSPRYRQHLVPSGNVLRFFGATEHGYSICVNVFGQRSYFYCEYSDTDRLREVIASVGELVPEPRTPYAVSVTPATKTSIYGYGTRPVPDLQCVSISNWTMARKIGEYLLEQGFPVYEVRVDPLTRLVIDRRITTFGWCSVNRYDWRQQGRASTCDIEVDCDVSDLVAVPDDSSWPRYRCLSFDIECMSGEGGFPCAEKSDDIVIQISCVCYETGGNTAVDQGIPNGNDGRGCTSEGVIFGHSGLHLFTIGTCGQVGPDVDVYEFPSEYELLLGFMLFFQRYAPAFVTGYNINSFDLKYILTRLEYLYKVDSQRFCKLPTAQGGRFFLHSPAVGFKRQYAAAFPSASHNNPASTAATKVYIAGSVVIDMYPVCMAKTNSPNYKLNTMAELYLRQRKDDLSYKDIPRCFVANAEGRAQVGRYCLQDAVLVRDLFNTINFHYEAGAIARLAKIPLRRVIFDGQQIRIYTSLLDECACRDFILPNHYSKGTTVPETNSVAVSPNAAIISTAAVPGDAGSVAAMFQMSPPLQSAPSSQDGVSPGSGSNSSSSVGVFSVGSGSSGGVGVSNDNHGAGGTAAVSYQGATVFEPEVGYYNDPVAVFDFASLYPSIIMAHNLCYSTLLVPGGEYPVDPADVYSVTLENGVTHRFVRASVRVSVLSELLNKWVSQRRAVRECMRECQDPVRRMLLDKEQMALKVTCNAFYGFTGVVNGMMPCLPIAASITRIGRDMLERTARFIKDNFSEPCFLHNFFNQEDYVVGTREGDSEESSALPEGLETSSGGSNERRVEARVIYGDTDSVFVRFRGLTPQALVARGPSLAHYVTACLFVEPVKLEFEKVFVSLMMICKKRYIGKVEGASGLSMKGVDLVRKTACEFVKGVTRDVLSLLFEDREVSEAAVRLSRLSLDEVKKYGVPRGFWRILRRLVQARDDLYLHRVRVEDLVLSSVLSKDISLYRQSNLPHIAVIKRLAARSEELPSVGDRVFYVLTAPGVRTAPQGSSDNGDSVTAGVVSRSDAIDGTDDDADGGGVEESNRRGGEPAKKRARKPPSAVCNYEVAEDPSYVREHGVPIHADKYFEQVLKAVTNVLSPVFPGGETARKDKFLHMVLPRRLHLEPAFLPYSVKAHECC
SMILES,effect on virus yield / HCMV replication [2],inhibition of long-chain DNA synthesis by UL54 and UL44 [3],cytotoxic concentration relative to antiviral concentration [5],cytotoxicity [5],IC50s in plaque reduction assay [6],inhibition of the UL54-UL44 physical interaction [7],also measured
CCOc1cc(C2C(C#N)=C(N)Oc3n[nH]c(-c4ccc(OC)cc4)c32)cc([N+](=O)[O-])c1O (stereo not drawn) [AL2],little or no effect,little or no inhibition,,,,,IC50 [1]: 95 µM
"Nc1nc(O)c2ncn(COC(CO)CO)c2n1 [GCV, ganciclovir, reference compound]",,,,,,,CC50 [4]: ~200 µM
CNC(=S)NN=Cc1ccc(OC)c(Br)c1 [AL20],relatively low IC50s,little or no inhibition,7-500 fold,relatively high CC50's,relatively low IC50s,did not significantly inhibit,
Nc1ccn(C[C@@H](CO)OCP(=O)(O)O)c(=O)n1 [cidofovir],,,,,,,cytotoxic activities reported [8]: 360 µM
O=c1c2cccc3cccc(c32)c2nc3ccccc3n12 [AL12],,relatively low IC50s,7-500 fold,relatively high CC50's,relatively low IC50s,potent,effect on virus yield / HCMV replication ([2]; HFF cells): relatively low IC50s; inhibition of long-chain DNA synthesis by UL54 and UL44 at one concentration ([3]; 40 μM): severely decreased formation of long DNA products
